Test results as given in patent publication US5049372A, “Anticancer activities in a host by increasing blood and plasma adenosine 5'-triphosphate (ATP) levels” (priority 1988, dated 1991).

Legend:
[1] = Inhibition of host weight loss (cancer cachexia) in CT26 tumor-bearing mice; assay type: in vivo, mouse; settings: FIG. 3; treatment initiated day 1 (A), day 5 (B) or day 9 (C)
Description: A further series of tests are conducted whereby tumors are inoculated by injections of 2.5×10^5 CT26 cells (over 90% viability) in 50 μl of phosphate-buffered saline into the right hind footpad of CB6F1 mice. The treatments were initiated at a variety of times after inoculation of the tumors. The injection schedules started either 1 or 5 days after tumor inoculation when none of the tumors are palpable or when the tumors are clearly palpable (average calculated weight of 100 mg), which occur in 100% of the inoculated mice after 8-11 days. Mice are randomized, divided into groups, and injected daily with 2.2 ml of saline, adenosine, AMP, or ATP (compounds are in sterile saline solutions at concentrations of 25 mM with AMP and ATP solutions adjusted to pH 6.2). Injections are administered intraperitoneally with 30 gauge needles and the mice are lightly anesthetized with […]. The mice are weighed and tumor sizes measured before the start of the treatment schedule and every three days during and after the treatment schedule. These determinations are performed before injections during the treatment period.
In particular, see FIG. 2. FIG. 2 illustrates inhibition of tumor growth (---) and host weight loss (-) in tumor-bearing mice by treatment with adenine nucleotides. Mice (CB6F1, 8 week old males) bearing palpable CT26 footpad tumors (on day 9 after tumor inoculation) are treated with saline (.smallcircle.), adenosine (o), AMP (Δ), or ATP (.quadrature.) as described herein. An untreated group is also included (x). Arrows indicate days of injection.
FIG. 3 further illustrates inhibition of host weight loss in tumor-bearing animals by treatment with adenine nucleotides. Mice (CB6F1, males, 7 weeks old, in A, 10 weeks old in B, C) are inoculated with CT26 tumors and daily treatments (for 10 consecutive days) with saline (.smallcircle.), adenosine (o), AMP (Δ), or ATP (.quadrature.) are initiated 1 day (A), 5 days (B), or 9 days after tumor inoculation (when all the tumors were palpable) (C). Arrows indicate days of injection. Experimental procedures were outlined in the text.

CAPAN-1 xenografts = experiment: Arrest of growth of CAPAN-1 xenografts in athymic nu/nu mice (Table 2); assay type: in vivo, human; settings: 1 ml of 50 mM i.p.
Description: The tumor cell lines employed were CT26, a mouse undifferentiated, aggressive colon carcinoma, and CAPAN-1, a well-differentiated human pancreatic adenocarcinoma. […] The cells are shown to be free of Mycoplasma contamination. Cells are cultured at 37° C. in a humidified atmosphere of 5% CO2 /95% air in MEM supplemented with antibiotics (100 units of penicillin per ml and 100 μg streptomycin per ml), L-glutamine (2 mM), non-essential amino acids (0.1 mM), sodium pyruvate (1 mM), and 10% fetal bovine serum.
In the tests, females and males CB6F1 mice (a standard F1 hybrid of BALB/C and C57BL/6) obtained from Jackson Laboratories, Bar Harbor, Maine and athymic outbred NCr nu/nu mice (males and females) from the Department of Radiation Medicine, Massachusetts General Hospital, Boston, Mass. 02114 are used. All the mice are kept for at least two weeks before inoculation of the tumors and the start of treatment and are 7-9 weeks old (CB6F1) or 6-7 weeks old (athymic nu/nu) at the start of the procedure. Animals weigh 20-25 g (females) or 23-28 g (males), are housed 5-12 per cage, and have ad libitum access to food and water.
Tumor cells are removed from subconfluent cultures by a mild trypsin-EDTA treatment, the cell pellet is washed once with MEM without serum and the cells are suspended at the desired cell numbers in PBS (phosphate-bufferedsaline, 8 g NaCl, 0.2 g KCl, 1.15 g Na2 HPO4.7H2 O, and 0.2 g KH2 PO4 per liter). Cell suspensions are shown to be at least 90% viable by trypan blue exclusion. Mice are injected subcutaneously in the right hind footpad with tumor cells suspended in 50 μl of PBS. The regular protocol (unless otherwise stated) consists of daily i.p. injections of 1 ml of 0.85% NaCl solution or 1 ml of 50 mM of AMP, ADP, or ATP in 0.85% NaCl (from stock solutions adjusted to pH 6.2) starting one day after tumor inoculation and given for ten consecutive days.
Injections are administered with 30 gauge needles and the mice are lightly anesthetized with ether. The mice are weighed before the start of treatment and once a week during and after treatment. After the tumors become palpable, tumor sizes are determined every three days. The animals are sacrificed, tumors are excised and weighed before they reach 10% of the animals' weight.
The effects of AMP, ADP, and ATP on human tumor xenografts in nude mice were evaluated utilizing the pancreatic ductal adenocarcinoma CAPAN-1 (see Kyriazis AP, Kyriazis AA, Scarpelli DG, Fogh J, Rao SM, Lepera R., "Human Pancreatic Adenocarcinoma Line CAPAN-1 in Tissue Culture and the Nude Mouse", Am. J. Pathol., 1982, 106, 250-260).
Treatment schedules consist of single daily i.p. injections for 10 consecutive days, starting one day after tumor inoculation. Tumor burden is relatively low (0.5-1×10^5 cells implanted) and tumor growth is slow (tumors became palpable 4-6 weeks after inoculation).

RBC ATP pools = RBC ATP pools after in vitro incubation of whole mouse blood with 1 mM compound (Table 6); assay type: cell-based; settings: for RBC ATP pools (after 30 min incubations in heparinized mouse blood): 1 mM compound, bioluminometry
Description: ^+ RBC ATP pools were determined in isolated washed RBCs after
incubations of whole blood with 1 mM of the specified compound by
bioluminometry. Data represent means ± S.D. of three separate

tumor cells = settings: low doses; prior application Ser. No. 397,897; cited from earlier work
[2] = experiment 4, 11 F, 0.5 × 10^5 cells, 10 weeks
[3] = experiment 5, 10 F, 0.5 × 10^5 cells, 9 weeks

Row | Structure (SMILES) | Deaths before stated day after tumor inoculation [1] | Arrested tumors/implanted tumors (CAPAN-1 xenografts; [2]) | Arrested tumors/implanted tumors (CAPAN-1 xenografts; [3]) | Increase in RBC ATP pools after in vitro treatment of whole mouse blood (in words) (RBC ATP pools) | RBC ATP pools (after 30 min incubations in heparinized mouse blood) (RBC ATP pools) [µM] | Effect on growth of tumor cells in vitro (in words) (tumor cells) | Arrested tumors/implanted tumors (CAPAN-1 xenografts; experiment 2, 5 F, 1 × 10^5 cells, 7 weeks) | Arrested tumors/implanted tumors (CAPAN-1 xenografts; experiment 3, 5 F, 1 × 10^5 cells, 6 weeks)
1 | Nc1ncnc2c1ncn2[C@@H]1O[C@H](COP(=O)(O)O)[C@@H](O)[C@H]1O [AMP, adenosine 5'-monophosphate] | No deaths occurred before day 19 (A) or day 25 (B,C) | 7/11 | 6/10 | marginal increases in RBC ATP pools | 0.73 ± 0.10 | would not inhibit cellular growth | – | –
2 | Nc1ncnc2c1ncn2[C@@H]1O[C@H](COP(=O)(O)OP(=O)(O)OP(=O)(O)O)[C@@H](O)[C@H]1O [ATP, adenosine 5'-triphosphate] | No deaths occurred before day 19 (A) or day 25 (B,C) | 8/11 | 8/10 | marginal increases in RBC ATP pools | 0.76 ± 0.05 | marked inhibition of DNA synthesis and arrest of significant populations of cells in the S phase of their cycle | 4/5 | 3/5
